Data on 20 compounds can be found in patent US8133913B2, “Substituted indeno [1,2-b]indole derivatives as novel inhibitors of protein kinase CK2 and their use as tumor therapeutic agents, cytostatics and diagnostic aids” (Heinrich-Heine Universitat Dusseldof, priority 2006, dated 2012).

The test system of data set [1] is SISO. The data set can be described thus: Proliferation of tumor cell lines (Bracht et al.). It is filed as cell-based. To be noted: for activity at 20 µM: tested at 20 μM.
Data set [2] deals with KYSE-70. The data set can be described thus: Proliferation of tumor cell lines (Bracht et al.). The data set is classed as cell-based. To be noted: Homo sapiens; for activity at 20 µM: KYSE-70, tested at 20 μM.
For data set [3], the system named is 5637. The data set can be described thus: Proliferation of tumor cell lines (Bracht et al.). To be noted: for activity at 20 µM: 5637, tested at 20 μM. It is filed as cell-based.
For data set [4], the system named is LCLC. The data set can be described thus: Proliferation of tumor cell lines (Bracht et al.). To be noted: read-out: IC50 (μM) Mean, inhibition of cell proliferation. The data set is classed as cell-based.
Data set [5] deals with T1, human CK2 protein kinase (holoenzyme) (Homo sapiens, UniProt P68400).
T1 construct: made in house; host or cells: E. coli BL21(DE3), pT7-7 or bicistronic pET11d-CK2α, β
T1 sequence (P68400 whole entry): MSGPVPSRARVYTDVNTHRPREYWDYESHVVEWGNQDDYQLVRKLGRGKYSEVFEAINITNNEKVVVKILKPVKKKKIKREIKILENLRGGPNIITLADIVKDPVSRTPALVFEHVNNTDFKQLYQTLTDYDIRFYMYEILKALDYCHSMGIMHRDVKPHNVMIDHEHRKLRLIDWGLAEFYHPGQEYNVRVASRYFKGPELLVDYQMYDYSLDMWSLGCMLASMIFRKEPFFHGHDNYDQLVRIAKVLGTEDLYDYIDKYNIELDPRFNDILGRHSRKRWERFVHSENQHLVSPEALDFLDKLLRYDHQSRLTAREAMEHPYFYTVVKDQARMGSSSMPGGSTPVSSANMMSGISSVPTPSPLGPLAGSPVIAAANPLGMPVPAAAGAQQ
T1 sequence (P67870 whole entry partner): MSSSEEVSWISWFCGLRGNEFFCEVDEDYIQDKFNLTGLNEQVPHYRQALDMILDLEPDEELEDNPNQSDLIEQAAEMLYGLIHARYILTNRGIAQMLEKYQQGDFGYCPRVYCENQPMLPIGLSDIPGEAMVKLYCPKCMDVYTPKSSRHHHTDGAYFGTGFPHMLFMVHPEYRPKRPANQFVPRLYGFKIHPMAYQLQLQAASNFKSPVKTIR
The data set can be described thus: Inhibition of recombinant human CK2 protein kinase (holoenzyme), radiometric filter assay with peptide […]. It is filed as biochemical. To be noted: for inhibition at 10 µM: 10 μM compound, DMSO control = 100% CK2 activity, at least three independent experiments; for IC50: concentration range 30 μM to 0.01 μM, 100 μM ATP in assay buffer.

In data set [6] the test system is A427. The data set can be described thus: Proliferation of tumor cell lines (Bracht et al.). The data set is classed as cell-based. To be noted: Homo sapiens, A-427, read-out: IC50 (μM) Mean, inhibition of cell proliferation.
Data set [7] concerns RT-4. The data set can be described thus: Proliferation of tumor cell lines (Bracht et al.). The data set is classed as cell-based. To be noted: Homo sapiens, read-out: IC50 (μM) Mean, inhibition of cell proliferation.
Data set [8] deals with DAN-G. The data set can be described thus: Proliferation of tumor cell lines (Bracht et al.). The data set is classed as cell-based. To be noted: read-out: IC50 (μM) Mean, inhibition of cell proliferation.
For data set [9], the system named is MCF-7. The data set can be described thus: Proliferation of tumor cell lines (Bracht et al.). The data set is classed as cell-based. To be noted: Homo sapiens, MCF7, read-out: IC50 (μM) Mean, inhibition of cell proliferation.
For data set [10], the system named is CK2. To be noted: known CK2 inhibitors, investigated predominantly on the rat enzyme; cited from earlier work.

What is called melting point is the temperature of the solid-liquid transition. The compound `O=C1CCCc2c1c1c(n2CCO)-c2ccccc2C1=O` [Example 14, 5-(2-Hydroxyethyl)-5,6,7,8-tetrahydro-indeno[1,2-b]indole-9,10-dione] had a melting point of 262 to 263 °C.
Take `O=C1CCCc2c1c1c(n2CCCO)-c2ccccc2C1=O` [Example 12, 5-(3-Hydroxypropyl)-5,6,7,8-tetrahydro-indeno[1,2-b]indole-9,10-dione]: the melting point came to 241 °C.
`CC1CC(=O)c2c3c(n(CCc4ccccc4)c2C1)-c1ccccc1C3=O` (stereo not shown) [Compound 4p, 7-Methyl-5-phenethyl-5,6,7,8-tetrahydro-indeno[1,2-b]indole-9,10-dione]: the activity at 20 µM in [1] (read-out: T/C (%) Mean) was 96.3%; in [2] (read-out: T/C (%) Mean), 72.1%; in [3] (read-out: T/C (%) Mean) it was 49.8%.
In general, inhibition refers to how much of the control response was suppressed. On to `O=C1CCCc2c1c1c(n2CCc2ccccc2)-c2ccccc2C1=O` [Compound 4d, 5-Phenethyl-5,6,7,8-tetrahydro-indeno[1,2-b]indole-9,10-dione], for which the IC50 in data set [1] (read-out: IC50 (μM) Mean, inhibition of cell proliferation) was 12.3 µM; in [4] it was 5.66 µM; in data set [5], 0.82 µM; in [6], > 20 µM; in [7], > 20 µM; in data set [8], > 20 µM. Moreover, the IC50 is > 20 µM in data set [2] (KYSE-70, read-out: IC50 (μM) Mean, inhibition of cell proliferation); 6.53 µM in [9]; 10.7 µM in data set [3] (5637, read-out: IC50 (μM) Mean, inhibition of cell proliferation). Further, the results for the activity at 20 µM in [1] (read-out: T/C (%) Mean), in data set [2] (read-out: T/C (%) Mean) and in data set [3] (read-out: T/C (%) Mean) were 65.5%, 67.5% and 48%, respectively. For the same compound, the inhibition at 10 µM in data set [5] was determined as 67%.
Consider `Cc1cc(O)c2c(c1)C(=O)c1cc(O)cc(O)c1C2=O` [emodin], for which the IC50 in data set [10] was 2 µM.
In the case of `CN(C)CCn1c2c(c3c1-c1ccccc1C3=O)C(=O)CCC2` [Example 11, 5-(2-Dimethylaminoethyl)-5,6,7,8-tetra-hydroindeno[1,2-b]indole-9,10-dione], the melting point came out at 178 °C.
In the case of `O=C1CC(c2ccccc2)Cc2c1c1c(n2Cc2ccccc2)-c2ccccc2C1=O` (stereo not shown) [Compound 4n, 5-Benzyl-7-phenyl-5,6,7,8-tetrahydro-indeno[1,2-b]indole-9,10-dione], the activity at 20 µM in [1] (read-out: T/C (%) Mean) was determined as 80.9%; in [2] (read-out: T/C (%) Mean) it was 75.2%; in data set [3] (read-out: T/C (%) Mean) it was 39.4%.
Consider `COc1ccc(CCn2c3c(c4c2-c2ccccc2C4=O)C(=O)CCC3)cc1OC` [Compound 4j, 5-[2-(3,4-Dimethoxyphenyl)ethyl]-5,6,7,8-tetrahydroindeno[1,2-b]indole-9,10-dione], for which the activity at 20 µM in data set [1] (read-out: T/C (%) Mean) stood at 105%; in data set [2] (read-out: T/C (%) Mean), 91.5%; in [3] (read-out: T/C (%) Mean), 101%.
With `O=c1ccc(=O)c2c1c1c(=O)c3ccccc3c1n2CCc1ccccc1` [Compound 6d, 5-Phenethyl-5H-indeno[1,2-b]indole-6,9,10-trione], the activity at 5 µM came out at 87.2% in [1] (tested at 5 μM (*), read-out: T/C (%) Mean); 92% in data set [2] (KYSE-70, tested at 5 μM (*), read-out: T/C (%) Mean); 69.7% in data set [3] (5637, tested at 5 μM (*), read-out: T/C (%) Mean). The inhibition at 10 µM in data set [5] turned out to be 70%. Further, in [5], the IC50 came out at 5.74 µM.
On to `CCOCCCn1c2c(c3c1-c1ccccc1C3=O)C(=O)CCC2` [Example 16, 5-Ethoxypropyl-5,6,7,8-tetrahydro-indeno[1,2-b]indole-9,10-dione], for which the melting point turned out to be 129 °C.
Compound `O=C1CCCc2c1c1c(n2Cc2ccccc2)-c2ccccc2C1=O` [Compound 4c, 5-Benzyl-5,6,7,8-tetrahydroindeno[1,2-b]indole-9,10-dione] gave a melting point of 185 °C. The activity at 20 µM in data set [1] (read-out: T/C (%) Mean) was 86.4%. In data set [2] (read-out: T/C (%) Mean), the activity at 20 µM was 65.8%. The activity at 20 µM in data set [3] (read-out: T/C (%) Mean) was 53.6%.
With `O=C1CCCc2c1c1c(n2-c2ccccc2)-c2ccccc2C1=O` [Compound 4g, 5-Phenyl-5,6,7,8-tetrahydroindeno[1,2-b]indole-9,10-dione], the activity at 10 µM was 101% in data set [1] (tested at 10 μM (**), read-out: T/C (%) Mean); 81.8% in data set [2] (KYSE-70, tested at 10 μM (**), read-out: T/C (%) Mean); 86.3% in data set [3] (5637, tested at 10 μM (**), read-out: T/C (%) Mean). Also, the inhibition at 10 µM in [5] stood at 60%. In [5], the IC50 was 1.44 µM.
Take `COC(=O)C1C(=O)c2c3c(n(-c4ccccc4)c2CC1C)-c1ccccc1C3=O` (stereo not shown) [Example 20, Methyl 7-methyl-9,10-dioxo-5-phenyl-5,6,7,8,9,10-hexahydroindeno[1,2-b]indole-8-carboxylate]: the melting point was 249 to 250 °C.
Turning to `CC(C)n1c2c(c3c(O)cccc31)C(=O)c1ccccc1-2` [Compound 5b, 9-Hydroxy-5-isopropyl-5H-indeno[1,2-b]indol-10-one], the activity at 20 µM was 104% in data set [1] (read-out: T/C (%) Mean), 77.6% in [2] (read-out: T/C (%) Mean) and 77.5% in data set [3] (read-out: T/C (%) Mean).
`O=C1CCCc2[nH]c3c(c21)C(=O)c1ccccc1-3` [Compound 4a, 5,6,7,8-Tetrahydroindeno[1,2-b]indole-9,10-dione] came in with a melting point of 332 to 333 °C. Besides, the activity at 20 µM in [1] (read-out: T/C (%) Mean) came to 99.9%. For the same compound, the activity at 20 µM in [2] (read-out: T/C (%) Mean) is 77.5%. For the same compound, the activity at 20 µM in [3] (read-out: T/C (%) Mean) was found to be 80.9%.
Regarding `CC(c1ccccc1)n1c2c(c3c1-c1ccccc1C3=O)C(=O)CCC2` (racemic) [Compound 4f, DL-5-(1-phenylethyl)-5,6,7,8-tetrahydro-indeno[1,2-b]indole-9,10-dione], the melting point was found to be 201 °C. Further, in [1] (read-out: T/C (%) Mean), the activity at 20 µM came out at 95.8%. For the same compound, in [5], the inhibition at 10 µM was found to be 66%. Also, the activity at 20 µM in data set [2] (read-out: T/C (%) Mean) came to 62.3%. Further, the activity at 20 µM in data set [3] (read-out: T/C (%) Mean) turned out to be 64.9%.
In the case of `COC(=O)C1C(=O)c2c([nH]c3c2C(=O)c2ccccc2-3)CC1C` (stereo not shown) [Compound 4l, Methyl 7-methyl-9,10-dioxo-5,6,7,8,9,10-hexahydroindeno[1,2-b]indole-8-carboxylate], the melting point was determined as 287 °C. The activity at 20 µM in data set [1] (read-out: T/C (%) Mean) stood at 104%. The activity at 20 µM in [2] (read-out: T/C (%) Mean) turned out to be 98.8%. Further, the activity at 20 µM in data set [3] (read-out: T/C (%) Mean) was 79.1%.
On to `COc1ccc(CCn2c3c(c4c2-c2ccccc2C4=O)C(=O)CCC3)cc1OC` (hydrate or solvate) [Compound 4j, 5-[2-(3,4-Dimethoxyphenyl)ethyl]-5,6,7,8-tetrahydroindeno[1,2-b]indole-9,10-dione], for which the melting point was in the range of 189 to 190 °C.
In turn, `COc1ccc(Cn2c3c(c4c2-c2ccccc2C4=O)C(=O)CCC3)cc1` [Compound 4i, 5-(4-Methoxybenzyl)-5,6,7,8-tetrahydro-indeno[1,2-b]indole-9,10-dione] yielded a melting point of 198 to 199 °C. In addition, the activity at 20 µM in data set [1] (read-out: T/C (%) Mean) stood at 93.6%. Further, the activity at 20 µM in data set [2] (read-out: T/C (%) Mean) was 79.2%. For the same compound, the activity at 20 µM in data set [3] (read-out: T/C (%) Mean) worked out at 78.2%.
With `O=C(O)Cn1c2c(c3c1-c1ccccc1C3=O)C(=O)CCC2` [Example 13, (9,10-Dioxo-6,8,9,10-tetrahydro-7H-indeno[1,2-b]indol-5-yl)acetic acid], the melting point was 279 to 280 °C (dec.).
